One test has as its system HT1080 cells. The experiment in a line: In vitro assay of invasion inhibition (BD BioCoat Angiogenesis System, matrigel). It is filed as cell-based, human. The note with it: for Invasion: HT1080 cells through matrigel, non-toxic concentration, 22 hours. As for the experimental part:
(c) In Vitro Assay of Invasion Inhibition by Heparanase Inhibitors
The ability of the compounds of the invention to inhibit cell invasion was determined quantitatively by the in vitro Endothelial Cell Migration assay using a BD BioCoat Angiogenesis System kit. The kit consists of a 24-multiwell insert plate (FluoroBlok, BD Falcon) containing a microporous (3.0 μm pore size) polyethylene terephthalate (PET) membrane that is capable of blocking fluorescence completely (>99% efficiency). This membrane is uniformly coated with matrigel (BD Matrigel Matrix). The uniform layer of matrigel matrix serves as a reconstituted authentic basement membrane in vitro, providing a true barrier to non-invasive cells, but allowing endothelial cells to attach to the membrane and freely migrate towards an angiogenic stimulus in the lower chamber of the insert plate. Post-labeling the cells with a fluorescent dye and measuring the fluorescence of invading cells in a fluorescent plate reader, provides quantitative measurement of cell invasion.
To cover the optimal seeding density for HT1080 cells, suspensions containing various cell concentrations were prepared: 1 ml of 3×10^5 cells/ml, 8 ml of 1.5×10^5 cells/ml and 1 ml of 0.75×10^5 cells/ml. The top chambers of each well in the inserts was filled with 0.25 ml cell-suspension, […] DMEM containing 5% fetal calf serum and an inhibitor solution. The plates were incubated for 22 hours at 37° C. and 8% CO2 atmosphere. At the end of incubation, the medium was aspirated from the upper chambers, and the insert was transferred into a second 24-well plate containing 0.5 ml/well of the fluorescent dye Calcein AM solution (4 μg/ml per plate, prepared from 50 μg Calcein AM dissolved in 20 μl DMSO and 12.5 ml of warm HBSS medium), and incubated for 90 minutes at 37° C., 8% CO2 atmosphere. Fluorescence of invaded cells was read in a fluorescence plate reader with bottom read capabilities at excitation/emission wavelength of 485/530 nm, without further manipulation. Only those labeled cells that have invaded the matrigel and passed through the pores of the PET membrane, were detected.

Test [1] addresses T1, human recombinant heparanase (h-hpa) (Homo sapiens, UniProt Q9Y251).
T1 sequence (Q9Y251 158-543 limits assumed): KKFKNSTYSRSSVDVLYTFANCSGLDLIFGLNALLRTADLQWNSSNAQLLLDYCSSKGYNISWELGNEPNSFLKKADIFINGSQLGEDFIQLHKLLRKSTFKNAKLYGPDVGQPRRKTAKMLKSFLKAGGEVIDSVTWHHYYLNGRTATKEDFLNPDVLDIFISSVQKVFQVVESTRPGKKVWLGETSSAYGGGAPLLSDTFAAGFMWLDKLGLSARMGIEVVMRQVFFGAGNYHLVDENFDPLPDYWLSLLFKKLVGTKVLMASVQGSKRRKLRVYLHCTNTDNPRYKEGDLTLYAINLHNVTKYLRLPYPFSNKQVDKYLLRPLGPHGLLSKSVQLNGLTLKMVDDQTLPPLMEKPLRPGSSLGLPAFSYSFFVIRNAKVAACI
T1 sequence (Q9Y251 36-109 limits assumed): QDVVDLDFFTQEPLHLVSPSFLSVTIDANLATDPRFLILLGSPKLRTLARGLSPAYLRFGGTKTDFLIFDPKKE
The experiment in a line: In vitro dimethylmethylene blue (DMB) assay for heparanase activity.
Method: (a) In Vitro Dimethylmethylene Blue (DMB) Assay for Heparanase Activity
Heparin Sepharose CL-6B beads were added up to the top of the wells of a multiscreen column loader (Millipore). A 96-well multiscreen plate containing 0.65 μm hydrophilic, low protein binding, Durapore membrane (Millipore) was placed, upside down, on top of the multiscreen column loader. The column loader and the multiscreen plate were held together, turned over, and the beads were uniformly transferred from the column loader to the multiscreen plate (Millipore, MADVM 650). Double-distilled water (DDW) was then added to the beads, which were allowed to swell for one minute, and then washed (three times) with DDW under vacuum. Heparin concentration was estimated to be 10 μM/well.
To each well, phosphate-buffered saline (PBS) containing 1% bovine serum albumin (BSA; 70 μl/well) and DMB (32 mg of DMB were dissolved in 5 ml ethanol, diluted to 1 liter with formate buffer containing 4 g sodium formate and 4 ml formic acid; 120 μl/well) were added. Color was developed after 5 minutes, and the absorbance of the samples was determined using a microplate reader (Spectra Max, Molecular Devices) at 530 nm with 570 nm as reference. The absorbance correlated to heparanase activity. As a control, heparanase was added to the heparin Sepharose swollen beads in the multiscreen plate and the heparanase reaction products were filtered immediately thereafter and the absorbance of these control samples was subtracted from all other samples.
The cell extracts were centrifuged and resuspended in 20 mM phosphate citrate buffer, pH 5.4 containing 50 mM NaCl. The cells were lysed by three cycles of freezing and thawing. The cell lysates were centrifuged (10000×g for 5 min), supernatants were collected and then assayed for heparanase activity using the DMB assay.
The partially purified human recombinant heparanase or the crude cell extracts expressing either human or mouse recombinant heparanase were added for a 3-hour incubation and the reaction continued as described above. Absorbance of the developing color was measured as described above.

The structures appear in SMILES notation.

As usually defined, the IC50 is the concentration needed to halve the response being measured.

Turning to `CCCCCCCCCCCCCCCCOc1ccccc1C1C=NN(c2ccc(S(=O)(=O)O)cc2)C1=O` (stereo not shown) [Compound 28], the Invasion result in the test on HT1080 cells was “yes”. The IC50 in test [1] came out at 1000 nM.

Turning to `CCCCCCCCC(CCCCCCCC)C1=NN(c2cccc(S(=O)(=O)O)c2)C(=O)C1` [Compound 17], the Invasion entry with HT1080 cells was “yes”. In addition, in test [1], the IC50 came out at 2700 nM.

Turning to `CCCCCCCCCCCCCCCCCC(=O)NC1=NN(c2ccc(Oc3ccccc3)c(S(=O)(=O)O)c2)C(=O)C1/N=N/c1cc(C(=O)OC)ccc1O` (stereo not shown) [Compound 18], the Invasion entry with HT1080 cells is “yes”. Besides, the IC50 in test [1] came to 290 nM.

Turning to `CCCCCCCCCCCCCCCCCC1=NN(c2ccc(Oc3ccccc3)c(S(=O)(=O)O)c2)C(=O)C1/N=N/c1ccc(O)c(OC)c1` (stereo not shown) [Compound 15], in the test on HT1080 cells, the Invasion result was “yes”. In addition, the IC50 in test [1] came to 250 nM.

As to `CCCCCCCCCCCCCCCc1ccc(OC(CC)C(=O)NCCCNC(=O)c2ccc3ccccc3c2O)cc1` (stereo not shown) [Compound 31], in the test on HT1080 cells, the Invasion entry is “yes”. Besides, the 50% inhibitory concentration (IC50) in test [1] amounted to 520 nM.

Turning to `CCCCCCCCCCCCCCCCCCN(C(=O)c1ccc2ccccc2c1O)c1cc(C(=O)O)cc(C(=O)O)c1` [Compound 3], in the test on HT1080 cells, the “inhibition of cell invasion” value was “effective inhibitors of cell invasion” and the Invasion entry is on record as “yes”. In addition, in test [1], the IC50 came to 380 nM.

Values taken from patent US20070185176A1, “Heparanase inhibitors and uses thereof” (Insight Bioharmaceuticals Ltd., priority 2004, published 2007).
